Drawing on publication PMC2099433, “The binding site for neohesperidin dihydrochalcone at the human sweet taste receptor” (BMC Structural Biology, 2007), this text covers EC50 and Emax for two compounds.

For test [1], the target named is T1, hTAS1R2 + hTAS1R3 A733V^5.46 (Homo sapiens, UniProt Q7RTX0+Q8TE23, A733V).
T1 construct: expressed in transfected cells; host or cells: HEK293T cells stably expressing G16Gust44
T1 sequence (Q8TE23 20-839): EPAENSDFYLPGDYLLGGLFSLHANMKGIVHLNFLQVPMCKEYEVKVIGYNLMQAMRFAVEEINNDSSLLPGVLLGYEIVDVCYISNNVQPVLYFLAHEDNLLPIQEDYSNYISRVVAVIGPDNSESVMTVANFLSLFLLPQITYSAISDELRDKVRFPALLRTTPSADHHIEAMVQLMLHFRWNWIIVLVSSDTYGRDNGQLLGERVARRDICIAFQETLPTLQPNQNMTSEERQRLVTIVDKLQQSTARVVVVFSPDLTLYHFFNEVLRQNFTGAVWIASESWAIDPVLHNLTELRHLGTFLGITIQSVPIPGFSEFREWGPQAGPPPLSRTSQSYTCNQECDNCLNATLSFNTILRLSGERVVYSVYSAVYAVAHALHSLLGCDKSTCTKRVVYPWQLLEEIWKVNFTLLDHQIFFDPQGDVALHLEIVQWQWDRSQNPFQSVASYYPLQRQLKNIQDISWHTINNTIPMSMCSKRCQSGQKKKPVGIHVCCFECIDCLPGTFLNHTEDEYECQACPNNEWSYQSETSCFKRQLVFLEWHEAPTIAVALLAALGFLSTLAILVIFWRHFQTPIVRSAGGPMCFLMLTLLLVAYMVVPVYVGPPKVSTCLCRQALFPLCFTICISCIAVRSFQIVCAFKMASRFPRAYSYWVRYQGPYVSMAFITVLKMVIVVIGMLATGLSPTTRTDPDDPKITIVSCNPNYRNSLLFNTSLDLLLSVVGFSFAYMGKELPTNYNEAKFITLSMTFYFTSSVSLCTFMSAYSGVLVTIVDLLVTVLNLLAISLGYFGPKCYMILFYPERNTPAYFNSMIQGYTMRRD
T1 sequence (Q7RTX0 21-852 A733V): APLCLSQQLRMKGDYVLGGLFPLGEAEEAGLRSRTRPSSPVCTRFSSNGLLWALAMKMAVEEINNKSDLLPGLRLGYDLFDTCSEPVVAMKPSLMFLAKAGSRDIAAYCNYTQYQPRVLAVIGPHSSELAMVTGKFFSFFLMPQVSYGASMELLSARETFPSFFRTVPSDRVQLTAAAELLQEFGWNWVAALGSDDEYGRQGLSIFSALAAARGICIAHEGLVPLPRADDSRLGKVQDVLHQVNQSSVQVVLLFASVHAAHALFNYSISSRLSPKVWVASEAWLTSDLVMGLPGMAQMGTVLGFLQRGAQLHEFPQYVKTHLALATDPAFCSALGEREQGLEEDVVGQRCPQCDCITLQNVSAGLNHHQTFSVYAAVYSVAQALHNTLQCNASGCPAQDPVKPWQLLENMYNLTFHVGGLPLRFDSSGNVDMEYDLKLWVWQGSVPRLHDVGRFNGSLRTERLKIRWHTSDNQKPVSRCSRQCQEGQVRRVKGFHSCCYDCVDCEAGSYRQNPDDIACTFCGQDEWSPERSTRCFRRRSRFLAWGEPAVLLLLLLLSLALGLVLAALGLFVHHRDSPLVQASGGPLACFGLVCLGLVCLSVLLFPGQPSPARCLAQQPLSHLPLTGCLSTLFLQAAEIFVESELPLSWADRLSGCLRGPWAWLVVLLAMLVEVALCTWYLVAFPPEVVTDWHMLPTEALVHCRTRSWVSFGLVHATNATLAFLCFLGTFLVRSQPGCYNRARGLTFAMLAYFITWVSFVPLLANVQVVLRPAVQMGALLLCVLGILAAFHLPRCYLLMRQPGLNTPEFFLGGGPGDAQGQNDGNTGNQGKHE
The experiment in a line: Calcium response (FLIPR), hTAS1R3 mutant coexpressed with hTAS1R2. The format is cell-based. The following applies: variant A733V^5.46; for Emax: read-out: maximal signal (% of wt). The gist of the method: (§1)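 Read-out: FLIPR calcium signal as ΔF/F = (F-F0)/F0, corrected for mock-transfected cells. Cells were HEK293T stably carrying G16Gust44, transiently transfected with HSV-tagged receptor cDNAs and dye-loaded with Fluo4-AM 24 h post transfection.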

Test [2] concerns the target T2, hTAS1R2 + hTAS1R3 Y699F^4.60 (Homo sapiens, UniProt Q7RTX0+Q8TE23, Y699F).
T2 construct: expressed in transfected cells; host or cells: HEK293T cells stably expressing G16Gust44
T2 sequence (Q7RTX0 21-852 Y699F): T1 sequence (Q7RTX0 21-852 A733V) with Y679F, V713A
T2 sequence (Q8TE23 20-839): T1 sequence (Q8TE23 20-839)
Described as above. The following applies: variant Y699F^4.60; for Emax: read-out: maximal signal (% of wt). The format is cell-based. The gist of the method:
as §1

Residue numbers refer to the chain shown, from its start. Where a SMILES comes first, the peptide text is derived from it.

As to `COc1ccc(CCC(=O)c2c(O)cc(O[C@@H]3O[C@H](CO)[C@@H](O)[C@H](O)[C@H]3O[C@@H]3O[C@@H](C)[C@H](O)[C@@H](O)[C@H]3O)cc2O)cc1O` [NHDC, neohesperidin dihydrochalcone], in test [1], the EC50 (in general, the concentration giving half of the maximal effect) amounted to 100 ± 20 µM and the Emax was determined as 133 ± 8%. In test [2], the EC50 worked out at 600 ± 400 µM and the Emax is 72 ± 17%.
The like results for `COC(=O)[C@H](Cc1ccccc1)NC(=O)[C@@H](N)CC(=O)O` [aspartame] (HELM PEPTIDE1{D.F.[CO[*:1]]}$$$$V2.0) were, in that order, 1100 ± 300 µM, 92 ± 80%, 1200 ± 300 µM and 56 ± 2%.
